Measured values from patent US9504729B2, “Antiangiogenic small molecules and methods of use” (The United States of America, as represented by the …, priority 2009, dated 2016).

Test system: angiogenesis genes in dermal microvascular endothelial cells
Test: Real time RT-PCR of angiogenesis gene expression during endothelial tube formation
Assay type: cell-based
Conditions: 1 μM SM, 24 hours
Procedure: For gene expression studies, three independent experiments were run for each SM tested. 90.000 cells/well (6 wells/treatment) of dermal microvascular endothelial cells (Lonza, Walkersville, Md.) were seeded on polymerized GELTREX™ gel matrix (Invitrogen, Carlsbad, Calif.) in 24 well plates. Wells were immediately treated with the same volume of 1 μM SM or PBS. After 24 hours incubation at 37° C. and 5% CO2, cells were extracted using Cell Recovery Solution (BD Biosciences, San Jose, Calif., Cat. #354253). Total RNA was extracted with the RNeasy Mini Kit (Qiagen, Valencia, Calif., Cat. #74104), and retrotranscribed using […]® First-Strand reverse transcriptase (Invitrogen, Carlsbad, Calif., Cat. #11904-018). The real time PCR reactions were performed in an Opticon 2 cycler (MJ Research, Waltham, Mass.). Amplification was performed in a final volume of 25 μl, containing 2 μl cDNA (1:10 dilution from the reversed transcribed reaction) and 2 μl of primer mixture (10 μM each of forward and reverse primers). Samples were amplified as follows: after initial denaturation at 95 C for 2 minutes, reactions were run for 46 cycles at 95° C. for 30 seconds, 60° C. for 30 seconds, and 72° C. for 45 seconds. Fluorescence was measured in every cycle and a melting curve was run after the PCR by increasing temperature from 50 to 96° C. (in 0.5° C. increments). A defined single peak was obtained for all amplicons, thus confirming the specificity of the amplification.
The genes that were monitored were selected based on their relevance to the angiogenesis process. All experiments were done in triplicate. The results are shown in the volcano plots of FIG. 17. Log 2 fold-change is presented in the X-axis and log 10 P value in the Y-axis.

SMILES: O=C1C(=Cc2ccccc2)C(NC2CCCCC2)c2ccccc21 (centres unmarked) [compound 150117]
- Log2 fold-change of gene expression: 1839: 0.9
- Log2 fold-change of gene expression: 4247: −0.1
- Log2 fold-change of gene expression: 5569: −0.1
- Log2 fold-change of gene expression: 8131: −0.5
- Log2 fold-change of gene expression: 9569: −4.2
- Log2 fold-change of gene expression: 10988: 0.8
- Log2 fold-change of gene expression: 23001: −1.0
- Log2 fold-change of gene expression: 55332: −1.7
- Log2 fold-change of gene expression: 57722: −0.9
- Log2 fold-change of gene expression: 58488: 0.3
- Log2 fold-change of gene expression: 90780: −1.4
- Log2 fold-change of gene expression: 134265: −1.0
- Log2 fold-change of gene expression: AKT1: 1.6
- Log2 fold-change of gene expression: ANGPT1: 1.7
- Log2 fold-change of gene expression: ANGPT2: −1.2
- Log2 fold-change of gene expression: ANGPTL3: 1.8
- Log2 fold-change of gene expression: ANGPTL4: −4.0
- Log2 fold-change of gene expression: ANPEP: −1.7
- Log2 fold-change of gene expression: ANTXR1: −4.2
- Log2 fold-change of gene expression: APOE: −1.0
- Log2 fold-change of gene expression: ARHGEF1: −2.0
- Log2 fold-change of gene expression: Acvrl1: −1.2
- Log2 fold-change of gene expression: Adcy4: −0.5
- Log2 fold-change of gene expression: BAL1: 0.8
- Log2 fold-change of gene expression: BMP1: −0.4
- Log2 fold-change of gene expression: C1orf54: −1.3
- Log2 fold-change of gene expression: CALD1: 1.1
- Log2 fold-change of gene expression: CCL2: 0.9
- Log2 fold-change of gene expression: CCL11: 0.7
- Log2 fold-change of gene expression: CD248: −0.4
- Log2 fold-change of gene expression: CDH5: −1.6
- Log2 fold-change of gene expression: CENTD3: −0.2
- Log2 fold-change of gene expression: CLIC1: 0.0
- Log2 fold-change of gene expression: COL4A3: 2.4
- Log2 fold-change of gene expression: COL18A1: 0.8
- Log2 fold-change of gene expression: COMT: −1.0
- Log2 fold-change of gene expression: CST4: −0.1
- Log2 fold-change of gene expression: CTTNBP2NL: −2.3
- Log2 fold-change of gene expression: CXCL3: 0.8
- Log2 fold-change of gene expression: CXCL5: −3.5
- Log2 fold-change of gene expression: CXCL6: 1.2
- Log2 fold-change of gene expression: CXCL9: 1.2
- Log2 fold-change of gene expression: CXCL10: −1.7
- Log2 fold-change of gene expression: Calcr1: −5.4
- Log2 fold-change of gene expression: Caskin2: −2.7
- Log2 fold-change of gene expression: Ccbp2: 0.4
- Log2 fold-change of gene expression: Cldn5: 0.1
- Log2 fold-change of gene expression: DGKG: 3.4
- Log2 fold-change of gene expression: DKK3: −3.3
- Log2 fold-change of gene expression: DLL4: 5.5
- Log2 fold-change of gene expression: DUT: −0.2
- Log2 fold-change of gene expression: EFNA1: 0.4
- Log2 fold-change of gene expression: EFNA3: −1.8
- Log2 fold-change of gene expression: EFNB2: 0.4
- Log2 fold-change of gene expression: EGF: −2.3
- Log2 fold-change of gene expression: ENG: −0.1
- Log2 fold-change of gene expression: EPHB4: −1.2
- Log2 fold-change of gene expression: EREG: −2.4
- Log2 fold-change of gene expression: ESAM1: −2.6
- Log2 fold-change of gene expression: EXTL3: 0.0
- Log2 fold-change of gene expression: Egf17: −3.3
- Log2 fold-change of gene expression: Ehd4: −0.6
- Log2 fold-change of gene expression: Entpd1: −8.9
- Log2 fold-change of gene expression: Epas1: 0.4
- Log2 fold-change of gene expression: EphB1: 0.7
- Log2 fold-change of gene expression: Erg: −3.2
- Log2 fold-change of gene expression: FGF1: −3.8
- Log2 fold-change of gene expression: FGF2: 0.0
- Log2 fold-change of gene expression: FGFR3: 1.0
- Log2 fold-change of gene expression: FIGF: 2.4
- Log2 fold-change of gene expression: FLT1: −0.5
- Log2 fold-change of gene expression: Fgd5: −1.2
- Log2 fold-change of gene expression: GPCR124: −2.9
- Log2 fold-change of gene expression: GRRP1: 0.0
- Log2 fold-change of gene expression: Grp116: −3.1
- Log2 fold-change of gene expression: HAND2: 1.5
- Log2 fold-change of gene expression: HGF: 1.5
- Log2 fold-change of gene expression: HIF1A: −1.8
- Log2 fold-change of gene expression: HPSE: −0.2
- Log2 fold-change of gene expression: Hspa12b: −3.5
- Log2 fold-change of gene expression: ID1: 0.3
- Log2 fold-change of gene expression: ID3: 0.5
- Log2 fold-change of gene expression: IFNA1: 1.9
- Log2 fold-change of gene expression: IFNB1: 2.1
- Log2 fold-change of gene expression: IFNG: −1.9
- Log2 fold-change of gene expression: IGF1: −0.2
- Log2 fold-change of gene expression: IL1B: 9.5
- Log2 fold-change of gene expression: IL6: 2.2
- Log2 fold-change of gene expression: IL8: 6.0
- Log2 fold-change of gene expression: ITGAV: −1.8
- Log2 fold-change of gene expression: ITGB3: −1.4
- Log2 fold-change of gene expression: Icam1: 0.6
- Log2 fold-change of gene expression: Icam2: 0.0
- Log2 fold-change of gene expression: JAG1: 0.3
- Log2 fold-change of gene expression: KDR: −2.1
- Log2 fold-change of gene expression: Kifc1: −0.1
- Log2 fold-change of gene expression: LAMAS5: −2.2
- Log2 fold-change of gene expression: LECT1: −0.2
- Log2 fold-change of gene expression: LEP: −0.2
- Log2 fold-change of gene expression: Lasts2: 0.3
- Log2 fold-change of gene expression: Lrrk1: −1.8
- Log2 fold-change of gene expression: MDK: −1.5
- Log2 fold-change of gene expression: MMP2: −0.6
- Log2 fold-change of gene expression: MMP9: −0.3
- Log2 fold-change of gene expression: MMP11: −0.2
- Log2 fold-change of gene expression: MRC2: −0.7
- Log2 fold-change of gene expression: Mmm2: −3.4
- Log2 fold-change of gene expression: Myo1b: −2.7
- Log2 fold-change of gene expression: NID1: −5.2
- Log2 fold-change of gene expression: NM023516: 0.6
- Log2 fold-change of gene expression: NRP1: −2.0
- Log2 fold-change of gene expression: NRP2: −3.2
- Log2 fold-change of gene expression: Notch4: −0.7
- Log2 fold-change of gene expression: Npr3: 0.5
- Log2 fold-change of gene expression: PALD: −1.7
- Log2 fold-change of gene expression: PDCD2: −0.9
- Log2 fold-change of gene expression: PDGFA: −0.9
- Log2 fold-change of gene expression: PECAM1: −2.5
- Log2 fold-change of gene expression: PGF: −1.6
- Log2 fold-change of gene expression: PLAU: 0.0
- Log2 fold-change of gene expression: PLG: −3.9
- Log2 fold-change of gene expression: PNMT: −0.4
- Log2 fold-change of gene expression: PROK2: 0.7
- Log2 fold-change of gene expression: PTGS1: 0.3
- Log2 fold-change of gene expression: PTPRCAP: 0.2
- Log2 fold-change of gene expression: Pltp: 0.9
- Log2 fold-change of gene expression: Ptprb: −2.6
- Log2 fold-change of gene expression: Ptprm: −1.4
- Log2 fold-change of gene expression: RAMP2: −4.4
- Log2 fold-change of gene expression: RASD2: −0.1
- Log2 fold-change of gene expression: Rasip1: −1.7
- Log2 fold-change of gene expression: S1PR1: −1.9
- Log2 fold-change of gene expression: SERPINF1: 1.5
- Log2 fold-change of gene expression: SPHK1: 1.2
- Log2 fold-change of gene expression: STAB1: −0.9
- Log2 fold-change of gene expression: Sdc4: 0.2
- Log2 fold-change of gene expression: Sdpr: 0.0
- Log2 fold-change of gene expression: Slc43a3: 0.0
- Log2 fold-change of gene expression: Slco2a1: −2.9
- Log2 fold-change of gene expression: TEK: 0.7
- Log2 fold-change of gene expression: TGFA: 5.3
- Log2 fold-change of gene expression: TGFB1: −1.3
- Log2 fold-change of gene expression: TGFB2: 1.6
- Log2 fold-change of gene expression: TGFBR1: 1.2
- Log2 fold-change of gene expression: THBS1: −0.6
- Log2 fold-change of gene expression: THBS2: 0.9
- Log2 fold-change of gene expression: THY1: −12.7
- Log2 fold-change of gene expression: TIMP1: −0.7
- Log2 fold-change of gene expression: TIMP2: −0.8
- Log2 fold-change of gene expression: TIMP3: −2.7
- Log2 fold-change of gene expression: TNF: 2.4
- Log2 fold-change of gene expression: TNS1: −0.9
- Log2 fold-change of gene expression: TNS3: 0.6
- Log2 fold-change of gene expression: TRA2B: −0.2
- Log2 fold-change of gene expression: TYMP: −1.1
- Log2 fold-change of gene expression: VEGFA: −0.3
- Log2 fold-change of gene expression: VEGFC: 2.0
- Log2 fold-change of gene expression: VGLL4: −3.5
- Log2 fold-change of gene expression: Vwf: −3.7
- Log2 fold-change of gene expression: copa: 0.0
- Log2 fold-change of gene expression: itbp4: −2.5
- Log2 fold-change of gene expression: ralb: −0.7
- Log2 fold-change of gene expression: stard9: 0.1
- Log2 fold-change of gene expression: B2M (1st listing (r49)): 2.8
- Log2 fold-change of gene expression: HPRT1 (1st listing (r50)): −0.4
- Log2 fold-change of gene expression: RPL13A (1st listing (r51)): −0.8
- Log2 fold-change of gene expression: GADPH (1st listing (r52)): −1.3
- Log2 fold-change of gene expression: ACTB (1st listing (r53)): −0.9
- Log2 fold-change of gene expression: PLXDC1 (1st listing (r74)): −3.2
- Log2 fold-change of gene expression: TNFAIP2 (1st listing (r91)): −0.6
- Log2 fold-change of gene expression: Robo4 (1st listing (r95)): −0.2
- Log2 fold-change of gene expression: 151516 (1st listing (r134)): 0.0
- Log2 fold-change of gene expression: TNFAIP2 (2nd listing (r92)): 2.7
- Log2 fold-change of gene expression: B2M (2nd listing (r97)): −1.2
- Log2 fold-change of gene expression: HPRT1 (2nd listing (r98)): 0.6
- Log2 fold-change of gene expression: RPL13A (2nd listing (r99)): 0.1
- Log2 fold-change of gene expression: GADPH (2nd listing (r100)): −0.1
- Log2 fold-change of gene expression: ACTB (2nd listing (r101)): −0.6
- Log2 fold-change of gene expression: PLXDC1 (2nd listing (r104)): −0.6
- Log2 fold-change of gene expression: 151516 (2nd listing (r139)): 0.0
- Log2 fold-change of gene expression: Robo4 (2nd listing (r188)): −0.3
- Log2 fold-change of gene expression: B2M (3rd listing (r145)): −0.7
- Log2 fold-change of gene expression: HPRT1 (3rd listing (r146)): 1.1
- Log2 fold-change of gene expression: RPL13A (3rd listing (r147)): 0.6
- Log2 fold-change of gene expression: GADPH (3rd listing (r148)): −0.5
- Log2 fold-change of gene expression: ACTB (3rd listing (r149)): −0.5
- Log2 fold-change of gene expression: B2M (4th listing (r193)): −0.8
- Log2 fold-change of gene expression: HPRT1 (4th listing (r194)): 0.4
- Log2 fold-change of gene expression: RPL13A (4th listing (r195)): 0.2
- Log2 fold-change of gene expression: GADPH (4th listing (r196)): −0.5
- Log2 fold-change of gene expression: ACTB (4th listing (r197)): −0.2
